SMILES strings stand for the structures. pKi: −log10 of the molar value. Values joined by “and” are separate entries in the source; they are usually repeats but may differ in a detail not shown here. Equal entries are not always repeated.

Results on eight compounds are retold here after BindingDB's records for doi:10.1021/jm970265x (Glaxo Wellcome Research and Development, 1997).

For the assay, the target named is T1, Gastrin/cholecystokinin type B receptor (Homo sapiens, UniProt P32239).
T1 sequence (P32239 whole entry): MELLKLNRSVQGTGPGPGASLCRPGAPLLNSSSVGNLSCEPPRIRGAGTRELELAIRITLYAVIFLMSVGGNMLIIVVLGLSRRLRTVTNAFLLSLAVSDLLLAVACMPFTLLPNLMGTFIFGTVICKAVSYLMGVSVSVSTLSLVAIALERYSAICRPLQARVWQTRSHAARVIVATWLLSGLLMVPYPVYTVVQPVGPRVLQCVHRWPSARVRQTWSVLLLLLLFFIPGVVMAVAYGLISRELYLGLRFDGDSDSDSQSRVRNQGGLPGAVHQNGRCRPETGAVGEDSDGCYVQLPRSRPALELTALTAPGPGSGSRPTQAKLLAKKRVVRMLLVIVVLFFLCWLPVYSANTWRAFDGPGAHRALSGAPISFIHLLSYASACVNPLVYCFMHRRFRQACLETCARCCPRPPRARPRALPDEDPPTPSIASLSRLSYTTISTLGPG
`COc1ccc(N(C(=O)CN2C(=O)C(Cc3n[nH]c4c(F)cccc34)C(=O)N(c3ccccc3)c3ccccc32)C(C)C)cc1` (stereo not drawn) [CCK-A Agonist 34]: the pKi (in general, the negative decadic logarithm of the Ki, by convention in mol/L) is 5.98.
In the case of `CC(C)N(C(=O)CN1C(=O)C(Cc2n[nH]c3ccccc23)C(=O)N(c2ccccc2)c2ccccc21)c1ccccc1` (stereo not drawn) [CCK-A Agonist 37], the pKi was 7.06 and 6.75.
`CC(C)N(C(=O)CN1C(=O)C(Cc2n[nH]c3ccccc23)C(=O)N(c2ccccc2)c2ccccc21)c1ccc(F)cc1` (stereo not drawn) [CCK-A Agonist 38]: the pKi is 6.86 and 6.32.
The value for `CC(C)N(C(=O)CN1C(=O)C(Cc2n[nH]c3ccccc23)C(=O)N(c2ccccc2)c2ccccc21)c1ccc(C(F)(F)F)cc1` (stereo not drawn) [CCK-A Agonist 39] was 5.78; that for `COc1cccc(N(C(=O)CN2C(=O)C(Cc3n[nH]c4ccccc34)C(=O)N(c3ccccc3)c3ccccc32)C(C)C)c1` (stereo not drawn) [CCK-A Agonist 40] was 6.32 and 6.72.
With `COc1ccccc1N(C(=O)CN1C(=O)C(Cc2n[nH]c3ccccc23)C(=O)N(c2ccccc2)c2ccccc21)C(C)C` (stereo not drawn) [CCK-A Agonist 41], the negative-log Ki (pKi) is 6.89.
The compound `CC(C)N(C(=O)CN1C(=O)C(Cc2n[nH]c3ccccc23)C(=O)N(c2ccccc2)c2ccccc21)c1ccc2c(c1)OCO2` (stereo not drawn) [CCK-A Agonist 42] gave a pKi of 6.14.
Regarding `CC(C)(C)N(C(=O)CN1C(=O)C(Cc2n[nH]c3ccccc23)C(=O)N(c2ccccc2)c2ccccc21)c1ccccc1` (stereo not drawn) [CCK-A Agonist 45], the pKi was 6.05.
